Tests used:
Format in all cases: cell-based
Settings in all cases: compounds at 50 nM and 500 nM
WEE1 = molecular target: T1, WEE1 (Homo sapiens, UniProt P30291+Q96SW2); assay: Western blot degradation of WEE1 in hPBMCs (24 h)
T1 construct: The supernatant was aspirated as the extracted total cell protein; endogenous in cells; host or cells: human peripheral blood mononuclear cells (hPBMCs)
Outline: (§1)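 Immunoblot densitometry quantifies target loss in hPBMCs after a 24 h compound exposure (50 nM, 500 nM). Percent remaining is normalised band intensity; DC50 is the concentration giving half the DMSO-control band grayscale.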

IKZF1 = molecular target: T2, IKZF1 (Homo sapiens, UniProt Q13422+Q96SW2); assay: Western blot degradation of IKZF1 in hPBMCs (24 h)
T2 construct: The supernatant was aspirated as the extracted total cell protein; endogenous in cells; host or cells: human peripheral blood mononuclear cells (hPBMCs)
Outline: as §1

IKZF2 = molecular target: T3, IKZF2 (Homo sapiens, UniProt Q96SW2+Q9UKS7); assay: Western blot degradation of IKZF2 in hPBMCs (24 h)
T3 construct: The supernatant was aspirated as the extracted total cell protein; endogenous in cells; host or cells: human peripheral blood mononuclear cells (hPBMCs)
Outline: as §1

IKZF3 = molecular target: T4, IKZF3 (Homo sapiens, UniProt Q96SW2+Q9UKT9); assay: Western blot degradation of IKZF3 in hPBMCs (24 h)
T4 construct: The supernatant was aspirated as the extracted total cell protein; endogenous in cells; host or cells: human peripheral blood mononuclear cells (hPBMCs)
Outline: as §1

CK1α = molecular target: T5, CK1α (Homo sapiens, UniProt P48729+Q96SW2); assay: Western blot degradation of CK1α in hPBMCs (24 h)
T5 construct: The supernatant was aspirated as the extracted total cell protein; endogenous in cells; host or cells: human peripheral blood mononuclear cells (hPBMCs)
Outline: as §1

GSPT1 = molecular target: T6, GSPT1 (Homo sapiens, UniProt P15170+Q96SW2); assay: Western blot degradation of GSPT1 in hPBMCs (24 h)
T6 construct: The supernatant was aspirated as the extracted total cell protein; endogenous in cells; host or cells: human peripheral blood mononuclear cells (hPBMCs)
Outline: as §1

T3 sequence (Q9UKS7 whole entry): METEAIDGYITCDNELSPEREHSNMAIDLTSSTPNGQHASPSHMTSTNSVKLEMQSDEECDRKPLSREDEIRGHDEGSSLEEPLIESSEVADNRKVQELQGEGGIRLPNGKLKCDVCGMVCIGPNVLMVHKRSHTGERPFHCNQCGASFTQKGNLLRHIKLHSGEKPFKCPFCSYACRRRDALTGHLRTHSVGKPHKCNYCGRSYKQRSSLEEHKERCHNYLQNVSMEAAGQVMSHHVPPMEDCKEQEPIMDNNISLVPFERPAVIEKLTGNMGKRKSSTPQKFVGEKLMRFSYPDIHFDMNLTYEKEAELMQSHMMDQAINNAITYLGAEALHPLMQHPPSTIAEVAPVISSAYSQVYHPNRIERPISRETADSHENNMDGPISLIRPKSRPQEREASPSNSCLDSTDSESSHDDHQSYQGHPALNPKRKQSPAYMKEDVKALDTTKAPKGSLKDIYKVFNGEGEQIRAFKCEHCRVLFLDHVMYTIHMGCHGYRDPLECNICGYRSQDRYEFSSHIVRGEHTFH
T3 sequence (Q96SW2 whole entry): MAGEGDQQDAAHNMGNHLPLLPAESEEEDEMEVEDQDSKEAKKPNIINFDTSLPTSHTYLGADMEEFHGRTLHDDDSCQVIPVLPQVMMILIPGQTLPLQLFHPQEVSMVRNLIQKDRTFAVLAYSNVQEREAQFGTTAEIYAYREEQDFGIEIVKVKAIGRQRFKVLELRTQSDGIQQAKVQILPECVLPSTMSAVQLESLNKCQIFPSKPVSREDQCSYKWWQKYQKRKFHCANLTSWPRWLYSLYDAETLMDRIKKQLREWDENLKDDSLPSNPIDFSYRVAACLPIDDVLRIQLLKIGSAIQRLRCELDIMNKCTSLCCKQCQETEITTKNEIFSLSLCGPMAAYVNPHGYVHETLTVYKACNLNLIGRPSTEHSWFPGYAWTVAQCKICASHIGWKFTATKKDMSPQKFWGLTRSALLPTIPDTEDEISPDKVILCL
T3 sequence (Q16531 whole entry partner): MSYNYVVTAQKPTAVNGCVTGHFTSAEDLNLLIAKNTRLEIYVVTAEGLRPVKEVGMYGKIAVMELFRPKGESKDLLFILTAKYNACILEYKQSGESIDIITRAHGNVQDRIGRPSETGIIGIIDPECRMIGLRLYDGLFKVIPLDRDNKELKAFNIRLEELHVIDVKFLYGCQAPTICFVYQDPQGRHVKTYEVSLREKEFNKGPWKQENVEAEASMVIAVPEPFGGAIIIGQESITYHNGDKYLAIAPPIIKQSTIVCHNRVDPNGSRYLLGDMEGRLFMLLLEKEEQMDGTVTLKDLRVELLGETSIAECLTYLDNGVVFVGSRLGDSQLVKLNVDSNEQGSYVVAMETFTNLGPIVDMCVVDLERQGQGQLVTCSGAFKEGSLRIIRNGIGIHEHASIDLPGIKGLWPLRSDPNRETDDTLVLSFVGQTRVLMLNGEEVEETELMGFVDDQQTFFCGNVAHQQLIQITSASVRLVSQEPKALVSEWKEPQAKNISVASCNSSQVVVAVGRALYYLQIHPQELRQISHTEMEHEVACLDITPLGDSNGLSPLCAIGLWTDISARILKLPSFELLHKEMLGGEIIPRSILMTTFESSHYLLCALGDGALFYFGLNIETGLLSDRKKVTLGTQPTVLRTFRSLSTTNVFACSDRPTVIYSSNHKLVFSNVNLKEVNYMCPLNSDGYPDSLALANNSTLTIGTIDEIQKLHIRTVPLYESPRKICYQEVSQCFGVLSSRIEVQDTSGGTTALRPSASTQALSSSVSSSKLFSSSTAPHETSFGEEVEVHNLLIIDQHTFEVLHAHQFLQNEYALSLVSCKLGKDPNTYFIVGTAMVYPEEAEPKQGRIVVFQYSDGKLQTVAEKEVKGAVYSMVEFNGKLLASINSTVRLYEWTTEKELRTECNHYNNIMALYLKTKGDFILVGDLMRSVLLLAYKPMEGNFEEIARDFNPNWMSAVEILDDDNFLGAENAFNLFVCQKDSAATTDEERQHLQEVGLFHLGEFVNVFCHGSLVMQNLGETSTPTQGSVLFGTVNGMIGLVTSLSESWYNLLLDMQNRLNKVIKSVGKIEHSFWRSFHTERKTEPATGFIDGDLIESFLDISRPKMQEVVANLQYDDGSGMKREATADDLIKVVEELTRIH
T1 sequence (P30291 whole entry): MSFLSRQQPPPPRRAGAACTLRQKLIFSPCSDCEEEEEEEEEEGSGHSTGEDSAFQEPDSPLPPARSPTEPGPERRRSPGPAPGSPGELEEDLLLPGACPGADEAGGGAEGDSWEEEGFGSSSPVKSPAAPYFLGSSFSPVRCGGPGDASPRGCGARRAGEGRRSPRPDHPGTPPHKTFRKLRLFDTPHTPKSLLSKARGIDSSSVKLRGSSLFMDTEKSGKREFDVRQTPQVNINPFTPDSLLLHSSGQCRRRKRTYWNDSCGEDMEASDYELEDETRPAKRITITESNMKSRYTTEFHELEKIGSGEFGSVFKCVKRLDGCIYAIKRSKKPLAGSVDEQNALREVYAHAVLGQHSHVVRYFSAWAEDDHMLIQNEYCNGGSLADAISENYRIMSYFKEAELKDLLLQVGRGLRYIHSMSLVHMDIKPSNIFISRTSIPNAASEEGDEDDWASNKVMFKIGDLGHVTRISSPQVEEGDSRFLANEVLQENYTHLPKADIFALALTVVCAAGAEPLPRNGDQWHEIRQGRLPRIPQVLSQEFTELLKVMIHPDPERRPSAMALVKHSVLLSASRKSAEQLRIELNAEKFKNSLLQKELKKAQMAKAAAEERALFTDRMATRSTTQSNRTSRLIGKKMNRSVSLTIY
T1 sequence (Q96SW2 whole entry): as the sequence (Q96SW2 whole entry) above
T1 sequence (Q16531 whole entry partner): as the sequence (Q16531 whole entry partner) above
T2 sequence (Q13422 whole entry): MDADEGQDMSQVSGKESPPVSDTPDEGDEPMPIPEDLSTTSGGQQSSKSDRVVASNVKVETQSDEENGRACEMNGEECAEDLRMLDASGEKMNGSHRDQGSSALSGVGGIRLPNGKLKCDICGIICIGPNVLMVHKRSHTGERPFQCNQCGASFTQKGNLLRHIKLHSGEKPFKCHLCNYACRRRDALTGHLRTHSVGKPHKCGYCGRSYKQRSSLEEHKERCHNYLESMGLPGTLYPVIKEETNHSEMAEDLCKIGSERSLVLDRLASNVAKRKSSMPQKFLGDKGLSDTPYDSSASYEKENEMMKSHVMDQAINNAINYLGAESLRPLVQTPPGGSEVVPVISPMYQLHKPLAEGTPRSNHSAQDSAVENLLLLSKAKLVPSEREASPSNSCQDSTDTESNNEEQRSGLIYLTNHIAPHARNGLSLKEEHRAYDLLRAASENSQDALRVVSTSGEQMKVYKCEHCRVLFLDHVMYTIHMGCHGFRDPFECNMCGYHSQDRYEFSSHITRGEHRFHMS
T2 sequence (Q96SW2 whole entry): as the sequence (Q96SW2 whole entry) above
T2 sequence (Q16531 whole entry partner): as the sequence (Q16531 whole entry partner) above
T5 sequence (P48729 whole entry): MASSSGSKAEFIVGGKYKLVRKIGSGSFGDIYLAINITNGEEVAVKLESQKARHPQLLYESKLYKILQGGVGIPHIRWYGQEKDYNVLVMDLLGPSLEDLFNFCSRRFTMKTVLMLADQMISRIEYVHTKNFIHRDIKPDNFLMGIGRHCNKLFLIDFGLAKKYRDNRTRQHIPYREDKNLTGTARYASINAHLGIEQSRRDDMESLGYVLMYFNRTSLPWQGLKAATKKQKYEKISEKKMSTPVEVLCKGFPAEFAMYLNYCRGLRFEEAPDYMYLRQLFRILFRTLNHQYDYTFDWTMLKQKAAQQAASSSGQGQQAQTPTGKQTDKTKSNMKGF
T5 sequence (Q96SW2 whole entry): as the sequence (Q96SW2 whole entry) above
T5 sequence (Q16531 whole entry partner): as the sequence (Q16531 whole entry partner) above
T6 sequence (P15170 whole entry): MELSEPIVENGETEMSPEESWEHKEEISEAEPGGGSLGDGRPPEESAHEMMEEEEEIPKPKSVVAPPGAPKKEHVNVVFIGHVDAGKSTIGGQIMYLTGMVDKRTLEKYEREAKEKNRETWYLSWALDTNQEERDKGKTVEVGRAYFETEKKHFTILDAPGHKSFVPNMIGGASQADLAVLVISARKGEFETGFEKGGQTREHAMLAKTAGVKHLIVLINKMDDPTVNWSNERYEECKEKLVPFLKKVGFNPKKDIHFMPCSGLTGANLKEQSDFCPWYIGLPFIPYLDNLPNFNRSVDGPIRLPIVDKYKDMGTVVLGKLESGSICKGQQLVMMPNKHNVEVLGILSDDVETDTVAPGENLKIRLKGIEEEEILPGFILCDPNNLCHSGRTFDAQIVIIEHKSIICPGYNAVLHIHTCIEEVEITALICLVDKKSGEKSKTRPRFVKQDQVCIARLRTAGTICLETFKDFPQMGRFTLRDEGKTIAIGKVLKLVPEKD
T6 sequence (Q96SW2 whole entry): as the sequence (Q96SW2 whole entry) above
T6 sequence (Q16531 whole entry partner): as the sequence (Q16531 whole entry partner) above

Row | Structure (SMILES) | WEE1 substrate protein remaining % (WEE1) | IKZF1 substrate protein remaining % (IKZF1) | IKZF2 substrate protein remaining % (IKZF2) | IKZF3 substrate protein remaining % (IKZF3) | CK1α substrate protein remaining % (CK1α) | GSPT1 substrate protein remaining % (GSPT1)
1 | Cc1cc(C2CCN(Cc3ccc4c(c3)C(=O)N(N3CCC(=O)NC3=O)C4=O)CC2)cs1 [GT-07421, 2-(2,4-dioxotetrahydropyrimidin-1(2H)-yl)-5-((4-(5-methylthiophen-3-yl)piperidin-1-yl)methyl)isoindoline-1,3-dione] | B (80%< substrate protein remaining % ≤100%) | B (80%< substrate protein remaining % ≤100%) | B (80%< substrate protein remaining % ≤100%) | B (80%< substrate protein remaining % ≤100%) | A (0% ≤ substrate protein remaining % ≤80%) | A (0% ≤ substrate protein remaining % ≤80%)
2 | O=C1CCN(N2C(=O)c3ccc(CN4CCC(c5ccoc5)CC4)cc3C2=O)C(=O)N1 [GT-07422, 2-(2,4-dioxotetrahydropyrimidin-1(2H)-yl)-5-((4-(furan-3-yl)piperidin-1-yl)methyl)isoindoline-1,3-dione] | B (80%< substrate protein remaining % ≤100%) | B (80%< substrate protein remaining % ≤100%) | B (80%< substrate protein remaining % ≤100%) | B (80%< substrate protein remaining % ≤100%) | A (0% ≤ substrate protein remaining % ≤80%) | A (0% ≤ substrate protein remaining % ≤80%)
3 | Cc1cc(C2=CCN(Cc3ccc4c(c3)C(=O)N(N3CCC(=O)NC3=O)C4=O)CC2)cs1 [GT-07423, 2-(2,4-dioxotetrahydropyrimidin-1(2H)-yl)-5-((4-(5-methylthiophen-3-yl)-3,6-dihydropyridin-1(2H)-yl)methyl)isoindoline-1,3-dione] | A (0% ≤ substrate protein remaining % ≤80%) | B (80%< substrate protein remaining % ≤100%) | B (80%< substrate protein remaining % ≤100%) | A (0% ≤ substrate protein remaining % ≤80%) | A (0% ≤ substrate protein remaining % ≤80%) | A (0% ≤ substrate protein remaining % ≤80%)
4 | O=C1CCN(N2C(=O)c3ccc(CN4CCC(c5cccs5)CC4)cc3C2=O)C(=O)N1 [GT-07424, 2-(2,4-dioxotetrahydropyrimidin-1(2H)-yl)-5-((4-(thiophen-2-yl)piperidin-1-yl)methyl)isoindoline-1,3-dione] | A (0% ≤ substrate protein remaining % ≤80%) | A (0% ≤ substrate protein remaining % ≤80%) | B (80%< substrate protein remaining % ≤100%) | A (0% ≤ substrate protein remaining % ≤80%) | B (80%< substrate protein remaining % ≤100%) | A (0% ≤ substrate protein remaining % ≤80%)
5 | O=C1CCN(N2Cc3cc(CN4C[C@H]5C[C@@H]4CN5c4cccc(Cl)c4Cl)ccc3C2=O)C(=O)N1 [GT-07427, 1-(5-(((1R,4R)-5-(2,3-dichlorophenyl)-2,5-diazabicyclo[2.2.1]heptan-2-yl)methyl)-1-oxoisoindolin-2-yl)dihydropyrimidine-2,4(1H,3H)-dione] | A (0% ≤ substrate protein remaining % ≤80%) | A (0% ≤ substrate protein remaining % ≤80%) | B (80%< substrate protein remaining % ≤100%) | B (80%< substrate protein remaining % ≤100%) | A (0% ≤ substrate protein remaining % ≤80%) | A (0% ≤ substrate protein remaining % ≤80%)
6 | O=C1CCN(N2Cc3cc(CN4CC5CCC4CN5c4cccc(Cl)c4Cl)ccc3C2=O)C(=O)N1 (stereo not drawn) [GT-07428, 1-(5-((5-(2,3-dichlorophenyl)-2,5-diazabicyclo[2.2.2]octan-2-yl)methyl)-1-oxoisoindolin-2-yl)dihydropyrimidine-2,4(1H,3H)-dione] | B (80%< substrate protein remaining % ≤100%) | A (0% ≤ substrate protein remaining % ≤80%) | B (80%< substrate protein remaining % ≤100%) | B (80%< substrate protein remaining % ≤100%) | A (0% ≤ substrate protein remaining % ≤80%) | A (0% ≤ substrate protein remaining % ≤80%)
7 | O=C1CCN(N2Cc3cc(CN4CC5CCC(C4)N5c4cccc(Cl)c4Cl)ccc3C2=O)C(=O)N1 [GT-07429, 1-(5-((8-(2,3-dichlorophenyl)-3,8-diazabicyclo[3.2.1]octan-3-yl)methyl)-1-oxoisoindolin-2-yl)dihydropyrimidine-2,4(1H,3H)-dione] | B (80%< substrate protein remaining % ≤100%) | A (0% ≤ substrate protein remaining % ≤80%) | B (80%< substrate protein remaining % ≤100%) | B (80%< substrate protein remaining % ≤100%) | B (80%< substrate protein remaining % ≤100%) | B (80%< substrate protein remaining % ≤100%)
8 | O=C1CCN(N2Cc3cc(CN4C5CCC4CN(c4cccc(Cl)c4Cl)C5)ccc3C2=O)C(=O)N1 [GT-07430, 1-(5-((3-(2,3-dichlorophenyl)-3,8-diazabicyclo[3.2.1]octan-8-yl)methyl)-1-oxoisoindolin-2-yl)dihydropyrimidine-2,4(1H,3H)-dione] | B (80%< substrate protein remaining % ≤100%) | A (0% ≤ substrate protein remaining % ≤80%) | B (80%< substrate protein remaining % ≤100%) | B (80%< substrate protein remaining % ≤100%) | A (0% ≤ substrate protein remaining % ≤80%) | A (0% ≤ substrate protein remaining % ≤80%)
9 | O=C1CCN(N2Cc3cc(CN4CCCN(c5cccc(Cl)c5Cl)CC4)ccc3C2=O)C(=O)N1 [GT-07431, 1-(5-((4-(2,3-dichlorophenyl)-1,4-diazepan-1-yl)methyl)-1-oxoisoindolin-2-yl)dihydropyrimidine-2,4(1H,3H)-dione] | B (80%< substrate protein remaining % ≤100%) | A (0% ≤ substrate protein remaining % ≤80%) | B (80%< substrate protein remaining % ≤100%) | B (80%< substrate protein remaining % ≤100%) | A (0% ≤ substrate protein remaining % ≤80%) | B (80%< substrate protein remaining % ≤100%)
10 | CC1CN(C(c2ccccc2)c2ccccc2)CC(C)N1Cc1ccc2c(c1)CN(N1CCC(=O)NC1=O)C2=O (stereo not drawn) [GT-07433, 1-(5-((4-benzhydryl-2,6-dimethylpiperazin-1-yl)methyl)-1-oxoisoindolin-2-yl)dihydropyrimidine-2,4(1H,3H)-dione] | B (80%< substrate protein remaining % ≤100%) | B (80%< substrate protein remaining % ≤100%) | A (0% ≤ substrate protein remaining % ≤80%) | B (80%< substrate protein remaining % ≤100%) | A (0% ≤ substrate protein remaining % ≤80%) | B (80%< substrate protein remaining % ≤100%)
11 | O=C1CCN(N2C(=O)c3ccc(CN4CC5CC(C4)N5c4cccc(Cl)c4Cl)cc3C2=O)C(=O)N1 [GT-07434, 5-((6-(2,3-dichlorophenyl)-3,6-diazabicyclo[3.1.1]heptan-3-yl)methyl)-2-(2,4-dioxotetrahydropyrimidin-1(2H)-yl)isoindoline-1,3-dione] | B (80%< substrate protein remaining % ≤100%) | B (80%< substrate protein remaining % ≤100%) | B (80%< substrate protein remaining % ≤100%) | B (80%< substrate protein remaining % ≤100%) | A (0% ≤ substrate protein remaining % ≤80%) | B (80%< substrate protein remaining % ≤100%)
12 | O=C1CCN(N2C(=O)c3ccc(CN4C[C@H]5C[C@@H]4CN5c4cccc(Cl)c4Cl)cc3C2=O)C(=O)N1 [GT-07435, 5-(((1R,4R)-5-(2,3-dichlorophenyl)-2,5-diazabicyclo[2.2.1]heptan-2-yl)methyl)-2-(2,4-dioxotetrahydropyrimidin-1(2H)-yl)isoindoline-1,3-dione] | B (80%< substrate protein remaining % ≤100%) | B (80%< substrate protein remaining % ≤100%) | B (80%< substrate protein remaining % ≤100%) | B (80%< substrate protein remaining % ≤100%) | A (0% ≤ substrate protein remaining % ≤80%) | B (80%< substrate protein remaining % ≤100%)

From patent publication US20260356819A1, “OXOISOINDOLINYL-SUBSTITUTED […] DERIVATIVE AND USE THEREOF” (GLUETACS THERAPEUTICS (SHANGHAI) CO., LTD., priority 2023, published 2026)
